Experimental data reported in patent US10556888B2, “Pyrazole compounds or salts thereof, preparation methods therefor, herbicidal compositions and use thereof” (QINGDAO KINGAGROOT CHEMICAL COMPOUNDS CO., LTD, priority 2015, dated 2020).

Key:
[1] = tested on: main crop (wheat, corn, rice, soybean, cotton, oilseed, millet and sorghum); test: Post-emergence test experiment, main crops (Table 2); format: in vivo; design: key: Level 10: completely dead; Level 9: above 90% growth inhibition rate; Level 8: above 80% growth inhibition rate; Level 7: above 70% growth inhibition rate; Level 6: above 60% growth inhibition rate; Level 5: above 50% growth inhibition rate; Level 4: above 30% growth inhibition rate; Level 3: above 20% growth inhibition rate; Level 2: above 10% growth inhibition rate; Level 1: above 1-10% growth inhibition rate; Level 0: no effect; conditions: 3 weeks after spraying, greenhouse
Protocol: (§1) Post-emergence test experiment: Monocotyledonous and dicotyledonous weed seeds and main crop seeds (i.e. wheat, corn, rice, soybean, cotton, oilseed, millet and sorghum.) were put into a plastic pot loaded with soil. Then covered with 0.5-2 cm soil, the seeds were allowed to grow in good greenhouse environment. The test plants were treated at 2-3 leaf stage 2-3 weeks after sowing. The test compounds of the invention were dissolved with acetone respectively, then added with 80 tween and diluted by certain amount of water to certain concentration. The solution was sprayed to the plants with a sprayer. Then the plants were cultured for 3 weeks in the greenhouse.

[2] = tested on: Monocotyledonous and dicotyledonous weed; test: Post-emergence test experiment, weed control effect (Table 2); format: in vivo; design: key to weed control effect, Setaria viridis (level) / weed control effect, Rorippa indica (level) / weed control effect, Abutilon theophrasti (level) / weed control effect, Echinochloa crus-galli (level) / weed control effect, Digitaria sanguinalis (level): Level 10: completely dead; Level 9: above 90% growth inhibition rate; Level 8: above 80% growth inhibition rate; Level 7: above 70% growth inhibition rate; Level 6: above 60% growth inhibition rate; Level 5: above 50% growth inhibition rate; Level 4: above 30% growth inhibition rate; Level 3: above 20% growth inhibition rate; Level 2: above 10% growth inhibition rate; Level 1: above 1-10% growth inhibition rate; Level 0: no effect; conditions: 3 weeks after spraying, greenhouse
Protocol: as §1

Structure (SMILES)	effect on crop, corn (level) ([1]; 30 g/ha)	effect on crop, rice (level) ([1]; 30 g/ha)	effect on crop, wheat (level) ([1]; 30 g/ha)	weed control effect, Abutilon theophrasti (level) ([2]; 30 g/ha)	weed control effect, Bidens pilosa (level) ([2]; 30 g/ha)	weed control effect, Digitaria sanguinalis (level) ([2]; 30 g/ha)	weed control effect, Echinochloa crus-galli (level) ([2]; 30 g/ha)	weed control effect, Rorippa indica (level) ([2]; 30 g/ha)	weed control effect, Setaria viridis (level) ([2]; 30 g/ha)	effect on crop, corn (level) ([1]; 120 g/ha)	effect on crop, rice (level) ([1]; 120 g/ha)	effect on crop, wheat (level) ([1]; 120 g/ha)	weed control effect, Abutilon theophrasti (level) ([2]; 120 g/ha)	weed control effect, Bidens pilosa (level) ([2]; 120 g/ha)	weed control effect, Digitaria sanguinalis (level) ([2]; 120 g/ha)	weed control effect, Echinochloa crus-galli (level) ([2]; 120 g/ha)	weed control effect, Rorippa indica (level) ([2]; 120 g/ha)	weed control effect, Setaria viridis (level) ([2]; 120 g/ha)
COCCOCc1c(S(C)(=O)=O)ccc(C(=O)c2c(C)nn(C)c2OC(=O)c2cn(C)nc2C)c1Cl [Compound 28]	0	6 (Level 6: above 60% growth inhibition rate)	0	7 (Level 7: above 70% growth inhibition rate)	7 (Level 7: above 70% growth inhibition rate)	7 (Level 7: above 70% growth inhibition rate)	9 (Level 9: above 90% growth inhibition rate)	5 (Level 5: above 50% growth inhibition rate)	5 (Level 5: above 50% growth inhibition rate)	–	–	–	–	–	–	–	–	–
CCc1nn(C)c(OC(=O)c2cn(C)nc2C)c1C(=O)c1ccc(S(C)(=O)=O)c(Cn2nc(C)cc2C)c1Cl [Compound 30]	–	–	–	–	–	–	–	–	–	0	0	0	6 (Level 6: above 60% growth inhibition rate)	6 (Level 6: above 60% growth inhibition rate)	4 (Level 4: above 30% growth inhibition rate)	8 (Level 8: above 80% growth inhibition rate)	4 (Level 4: above 30% growth inhibition rate)	10
CCOCc1c(S(C)(=O)=O)ccc(C(=O)c2c(CC)nn(C)c2OC(=O)c2cn(C)nc2C)c1Cl [Compound 31]	0	5 (Level 5: above 50% growth inhibition rate)	0	7 (Level 7: above 70% growth inhibition rate)	7 (Level 7: above 70% growth inhibition rate)	10	10	5 (Level 5: above 50% growth inhibition rate)	9 (Level 9: above 90% growth inhibition rate)	–	–	–	–	–	–	–	–	–
CCc1nn(C)c(OC(=O)c2cn(C)nc2C)c1C(=O)c1ccc(S(C)(=O)=O)c(COCC(F)(F)F)c1Cl [Compound 32]	1 (Level 1: above 1-10% growth inhibition rate)	5 (Level 5: above 50% growth inhibition rate)	0	7 (Level 7: above 70% growth inhibition rate)	7 (Level 7: above 70% growth inhibition rate)	10	10	5 (Level 5: above 50% growth inhibition rate)	10	–	–	–	–	–	–	–	–	–
